Experimental data reported in PubChem BioAssay AID248 (DTP/NCI, 2004).
Where “and” joins values, the source holds several entries; their conditions need not be identical. Identical values can stand only once. Inconclusive results and toxic doses are left out. No stated cut-off is given here; in the data, active means T/C of 150% or more; inactive means T/C below 125%.

System: L1210 leukemia ip in BDF1 mice, survival T/C
Test: NCI In Vivo Anticancer Drug Screen. Data for tumor model L1210 Leukemia (intraperitoneal) in B6D2F1 (BDF1) mice
Settings: endpoint: mean survival time, higher = longer survival
In short: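 Ratio derived from survival: compound-dosed mice over vehicle-dosed mice, all bearing a transplantable tumor.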

[1] = dose: 100.0 mg/kg/injection, schedule: Q04DX003 (ip), vehicle: saline with Tween-80
[2] = dose: 200.0 mg/kg/injection, schedule: Q04DX003 (ip), vehicle: saline with Tween-80
[3] = dose: 200.0 mg/kg/injection, schedule: Q01DX009 (ip), vehicle: saline with Tween-80
[4] = dose: 400.0 mg/kg/injection, schedule: Q01DX009 (ip), vehicle: saline with Tween-80
[5] = dose: 400.0 mg/kg/injection, schedule: Q04DX003 (ip), vehicle: saline with Tween-80
[6] = dose: 50.0 mg/kg/injection, schedule: Q01DX009 (ip), vehicle: saline
[7] = dose: 100.0 mg/kg/injection, schedule: Q04DX003 (ip), vehicle: saline
[8] = dose: 3.12 mg/kg/injection, schedule: Q01DX009 (ip), vehicle: saline
[9] = dose: 6.25 mg/kg/injection, schedule: Q01DX009 (ip), vehicle: saline
[10] = dose: 12.5 mg/kg/injection, schedule: Q01DX009 (ip), vehicle: saline
[11] = dose: 12.5 mg/kg/injection, schedule: Q04DX003 (ip), vehicle: saline
[12] = dose: 25.0 mg/kg/injection, schedule: Q04DX003 (ip), vehicle: saline
[13] = dose: 50.0 mg/kg/injection, schedule: Q04DX003 (ip), vehicle: saline

Measured: T/C

COC(=O)CCCCCCCCCCS.[Pb]
inactive: dose: 50.0 mg/kg/injection, schedule: Q01DX001 (ip), vehicle: carboxymethylcellulose (CMC) 92 % of control | dose: 100.0 mg/kg/injection, schedule: Q01DX001 (ip), vehicle: carboxymethylcellulose (CMC) 94 % of control | dose: 200.0 mg/kg/injection, schedule: Q01DX001 (ip), vehicle: carboxymethylcellulose (CMC) 94 % of control | dose: 400.0 mg/kg/injection, schedule: Q01DX001 (ip), vehicle: carboxymethylcellulose (CMC) 97 % of control

COc1ccc(NS(=O)c2ccc(Oc3ccccc3)cc2)cc1 (stereo not drawn)
inactive: dose: 25.6 mg/kg/injection, schedule: Q04DX002 (ip), vehicle: saline with Tween-80 106 % of control | dose: 64.0 mg/kg/injection, schedule: Q04DX002 (ip), vehicle: saline with Tween-80 112 % of control | dose: 160.0 mg/kg/injection, schedule: Q04DX002 (ip), vehicle: saline with Tween-80 101 % of control | dose: 400.0 mg/kg/injection, schedule: Q04DX002 (ip), vehicle: saline with Tween-80 93 % of control

O=C1OC2(c3ccccc31)c1ccccc1-c1ccccc12
inactive: [1] 97 % of control | [2] 89 % of control

CC(=O)OCC(OC(C)=O)C1OCOC2COCOC21 (stereo not drawn)
inactive: dose: 100.0 mg/kg/injection, schedule: Q01DX001 (ip), vehicle: Klucel (hydroxypropylcellulose) (HPC) 108 % of control | dose: 200.0 mg/kg/injection, schedule: Q01DX001 (ip), vehicle: Klucel (hydroxypropylcellulose) (HPC) 89 % of control | dose: 400.0 mg/kg/injection, schedule: Q01DX001 (ip), vehicle: Klucel (hydroxypropylcellulose) (HPC) 101 % of control

N#C/C(=C1C=C(Br)/C(=N\O)C=C\1Cl)c1cccc2ccccc12
inactive: dose: 100.0 mg/kg/injection, schedule: Q01DX009 (ip), vehicle: saline with Tween-80 98 % of control | [1] 95 % of control | [3] 93 % of control | [2] 90 % of control | [4] 94 % of control | [5] 104 % of control

CCCCCCCc1nc2nn[nH]c(=O)c2[nH]1
inactive: dose: 100.0 mg/kg/injection, schedule: Q01DX001 (ip), vehicle: saline with Tween-80 94 % of control | dose: 200.0 mg/kg/injection, schedule: Q01DX001 (ip), vehicle: saline with Tween-80 100 % of control | dose: 400.0 mg/kg/injection, schedule: Q01DX001 (ip), vehicle: saline with Tween-80 90 % of control

CC(=O)Nc1ccc(/C=C/c2ccc3ccccc3[n+]2C)cc1
inactive: dose: 25.0 mg/kg/injection, schedule: Q01DX009 (ip), vehicle: saline with Tween-80 97 % of control | dose: 25.0 mg/kg/injection, schedule: Q04DX003 (ip), vehicle: saline with Tween-80 101 % of control | dose: 50.0 mg/kg/injection, schedule: Q01DX009 (ip), vehicle: saline with Tween-80 106 % of control | dose: 50.0 mg/kg/injection, schedule: Q04DX003 (ip), vehicle: saline with Tween-80 98 % of control | [1] 94 % of control

Cc1ccc(NC(=O)Nc2ccc(C)c(NC(=O)Nc3ccc(C)cc3C)c2)c(C)c1
inactive: [1] 90 % of control | [3] 103 % of control | [2] 95 % of control | [4] 109 % of control | [5] 93 % of control

CCOC(=O)C1=C(C)NC(C)=C(C(=O)OCC)C1
inactive: [6] 101 % of control | dose: 100.0 mg/kg/injection, schedule: Q01DX009 (ip), vehicle: saline 96 % of control | [7] 104 % of control | dose: 200.0 mg/kg/injection, schedule: Q01DX009 (ip), vehicle: saline 96 % of control | dose: 200.0 mg/kg/injection, schedule: Q04DX003 (ip), vehicle: saline 108 % of control | dose: 400.0 mg/kg/injection, schedule: Q01DX009 (ip), vehicle: saline 101 % of control | dose: 400.0 mg/kg/injection, schedule: Q04DX003 (ip), vehicle: saline 95 % of control

COC(=O)C1=CCCN(C)C1
inactive: [8] 103 % of control | [9] 101 % of control | [10] 98 % of control | [11] 93 % of control | dose: 20.0 mg/kg/injection, schedule: Q01DX009 (ip), vehicle: saline 93 % of control | dose: 20.0 mg/kg/injection, schedule: Q04DX003 (ip), vehicle: saline 97 % of control | dose: 25.0 mg/kg/injection, schedule: Q01DX009 (ip), vehicle: saline 98 % of control | [12] 95 % of control and 94 % of control | dose: 40.0 mg/kg/injection, schedule: Q01DX009 (ip), vehicle: saline 92 % of control | dose: 40.0 mg/kg/injection, schedule: Q04DX003 (ip), vehicle: saline 94 % of control | [6] 106 % of control | [13] 103 % of control and 94 % of control | dose: 80.0 mg/kg/injection, schedule: Q01DX009 (ip), vehicle: saline 90 % of control | dose: 80.0 mg/kg/injection, schedule: Q04DX003 (ip), vehicle: saline 100 % of control

CCN(C(=S)Nc1cccc2ccccc12)c1ccccc1
inactive: dose: 100.0 mg/kg/injection, schedule: Q01DX009 (ip), vehicle: Klucel (hydroxypropylcellulose) (HPC) 100 % of control | dose: 200.0 mg/kg/injection, schedule: Q01DX009 (ip), vehicle: Klucel (hydroxypropylcellulose) (HPC) 96 % of control | dose: 400.0 mg/kg/injection, schedule: Q01DX009 (ip), vehicle: Klucel (hydroxypropylcellulose) (HPC) 92 % of control

OCCN1CCN(CC/C=C2\c3ccccc3COc3ccc(Cl)cc32)CC1
inactive: dose: 0.78 mg/kg/injection, schedule: Q03HX024 (ip), vehicle: saline 97 % of control | dose: 1.56 mg/kg/injection, schedule: Q03HX024 (ip), vehicle: saline 94 % of control | dose: 2.0 mg/kg/injection, schedule: Q01DX009 (ip), vehicle: saline 88 % of control | [8] 114 % of control and 123 % of control | dose: 3.12 mg/kg/injection, schedule: Q03HX024 (ip), vehicle: saline 96 % of control | dose: 3.12 mg/kg/injection, schedule: Q04DX003 (ip), vehicle: saline 97 % of control | dose: 4.0 mg/kg/injection, schedule: Q01DX009 (ip), vehicle: saline 98 % of control | [9] 107 % of control and 122 % of control | dose: 6.25 mg/kg/injection, schedule: Q04DX003 (ip), vehicle: saline 105 % of control and 120 % of control | dose: 8.0 mg/kg/injection, schedule: Q01DX009 (ip), vehicle: saline 96 % of control | dose: 12.5 mg/kg/injection, schedule: Q01DX001 (ip), vehicle: saline 106 % of control | [10] 114 % of control | [11] 103 % of control and 117 % of control | dose: 16.0 mg/kg/injection, schedule: Q01DX009 (ip), vehicle: saline 100 % of control | dose: 18.75 mg/kg/injection, schedule: Q01DX001 (ip), vehicle: saline 100 % of control | dose: 25.0 mg/kg/injection, schedule: Q01DX001 (ip), vehicle: saline 120 % of control | [12] 95 % of control and 119 % of control | dose: 37.5 mg/kg/injection, schedule: Q01DX001 (ip), vehicle: saline 120 % of control | dose: 50.0 mg/kg/injection, schedule: Q01DX001 (ip), vehicle: saline 101 % of control | [13] 101 % of control | dose: 75.0 mg/kg/injection, schedule: Q01DX001 (ip), vehicle: saline 88 % of control | dose: 100.0 mg/kg/injection, schedule: Q01DX001 (ip), vehicle: saline 118 % of control

CSc1ncc2cnccn12
inactive: dose: 25.0 mg/kg/injection, schedule: Q01DX009 (ip), vehicle: water 95 % of control | [12] 106 % of control | dose: 50.0 mg/kg/injection, schedule: Q01DX009 (ip), vehicle: water 102 % of control | [13] 101 % of control | dose: 100.0 mg/kg/injection, schedule: Q01DX009 (ip), vehicle: water 102 % of control | [7] 101 % of control | dose: 100.0 mg/kg/injection, schedule: Q04DX003 (ip), vehicle: water 93 % of control

COc1ccc(/C=C2\N=C(c3cc(OC)c(OC)c(OC)c3)OC2=O)cc1
inactive: dose: 100.0 mg/kg/injection, schedule: Q04DX002 (ip), vehicle: Klucel (hydroxypropylcellulose) (HPC) 95 % of control | dose: 200.0 mg/kg/injection, schedule: Q04DX002 (ip), vehicle: Klucel (hydroxypropylcellulose) (HPC) 98 % of control | dose: 400.0 mg/kg/injection, schedule: Q04DX002 (ip), vehicle: Klucel (hydroxypropylcellulose) (HPC) 88 % of control
